Experimental data from patent US5863899A (priority 1994, dated 1999).
Read-outs that look alike come from different tables or passages of the source. Square brackets hold non-standard residues; d marks the D form. Peptide text beside a SMILES is read from it. * marks the point of attachment. X13 = COc1ccc2c3c1O[C@H]1C(NC(=O)CNC(=O)CCSC4CC(=O)N(CCCCCCN5C(=O)CC(*)C5=O)C4=O)CC[C@@]4(O)[C@@H](C2)N(C)CC[C@]314; X9 = COc1ccc2c3c1O[C@H]1C(NCCSC4CC(=O)N(CCCCCCN5C(=O)CC(*)C5=O)C4=O)CC[C@@]4(O)[C@@H](C2)N(C)CC[C@]314; X1 = CN1CC[C@]23c4c5ccc(O)c4O[C@H]2C(NCCSC2CC(=O)N(CCCCCCN4C(=O)CC(*)C4=O)C2=O)CC[C@@]3(O)[C@H]1C5; X4 = CC(C)(C)c1ccc(C(C)(C)C(=O)Oc2ccc(S(=O)(=O)CCCC(=O)OCCCCCCN3C(=O)CC(*)C3=O)cc2)cc1; X7 = COc1ccc2c(c1)c(CC(=O)OCCCCCCN1C(=O)CC(*)C1=O)c(C)n2C(=O)c1ccc(Cl)cc1; Oic = O=C(O)[C@@H]1C[C@@H]2CCCC[C@@H]2N1; Hyp = O=C(O)[C@@H]1C[C@@H](O)CN1; dTic = O=C(O)[C@H]1Cc2ccccc2CN1; 2Thi = N[C@@H](Cc1cccs1)C(=O)O; X20 = O=C1CC(*)C(=O)N1CCCCCCO

Assays:
[1] = biological target: T1, purified human neutrophil elastase (HNE) (Homo sapiens, UniProt P08246); assay: neutrophil elastase inhibition with chromogenic substrate MOS-AAPV-pNA; format: biochemical
T1 sequence (P08246 30-247 limits assumed): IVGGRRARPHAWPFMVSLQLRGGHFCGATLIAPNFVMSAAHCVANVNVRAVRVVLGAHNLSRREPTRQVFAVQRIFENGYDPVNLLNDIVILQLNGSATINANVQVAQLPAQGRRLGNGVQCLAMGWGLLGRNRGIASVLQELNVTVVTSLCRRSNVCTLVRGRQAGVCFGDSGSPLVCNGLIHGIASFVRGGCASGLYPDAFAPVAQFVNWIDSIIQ

BK2-receptor [2] = biological target: T2, BK2-receptor (Rattus norvegicus, UniProt P25023)
T2 sequence (P25023 1-396): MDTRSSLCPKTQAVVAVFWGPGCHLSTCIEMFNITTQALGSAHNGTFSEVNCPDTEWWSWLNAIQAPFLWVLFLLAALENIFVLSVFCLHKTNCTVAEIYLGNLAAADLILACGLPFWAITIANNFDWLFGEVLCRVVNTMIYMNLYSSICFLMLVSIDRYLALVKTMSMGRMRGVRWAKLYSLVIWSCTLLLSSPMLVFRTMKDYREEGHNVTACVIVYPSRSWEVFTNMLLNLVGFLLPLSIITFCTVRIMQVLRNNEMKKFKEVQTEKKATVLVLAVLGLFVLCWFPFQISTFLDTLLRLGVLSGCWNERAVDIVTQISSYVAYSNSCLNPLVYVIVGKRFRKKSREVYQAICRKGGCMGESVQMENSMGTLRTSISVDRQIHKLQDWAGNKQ

BK2-receptor [3] = biological target: T2, BK2-receptor; assay: cell-based
[4] = test system: mice injected in the hind limb foot pad with formalin; assay: mouse formalin test (model of inflammatory and neurogenic pain); format: in vivo; details: for narcotic / behavioral effects in the formalin test: oxymorphone: highest doses 0.9 and 3.0 umoles/kg, CP-0494: over several hours
Protocol: In order to test the activity of these compounds in vivo, a model of inflammatory and neurogenic pain was used. This model measures the behavioral responses of mice injected in the hind limb foot pad with 50 ul of formalin. Control mice (open circles) show a characteristic bi-phasic response to the injected formalin wherein there is a short lasting initial response followed by a quiescent period which is then followed by a sustained period of hind limb licking. The licking behavior is interpreted to mean that the limb is irritated and painful. The greater the time spent licking, the more painful the stimulus.

in vitro = assay: in vitro
Protocol: Unfortunately, there are no established animal models that can be employed to assess combined BKAn and NEI activity in vivo. Therefore, in order to assess the potential for in vivo hydrolysis of the intact heterodimer, an in vitro "surrogate" system was employed wherein the parent heterodimer (CP-0502) was incubated with human plasma and the resulting metabolites analyzed by reverse phase HPLC.
CP-0502 was added to freshly obtained normal human plasma and allowed to incubate at 37° C. for varying amounts of time. At the designated time the samples were treated with acidified (0.1N HCl) acetonitrile in order to precipitate the plasma proteins. Aliquots (75 ul) of the supernatents were then analyzed on a Vydac C-18 reverse phase HPLC column using 24% to 80% acetonitrile gradient in 0.1% TFA. The eluent was monitored at 214 nm.

[5] = test system: rat lung parenchymal strips (cyclooxygenase dependent contraction); assay: rat lung parenchymal strips challenged with arachidonic acid; format: cell-based; details: contraction in response to exogenously applied arachidonic acid
From the text: As mentioned previously, for the COI to work it may need to be dissociated from the BKAn so as to allow for its intracellular penetration. Therefore, in order to evaluate the functional activity of a BKAn/COI heterodimer, CP-0460 was exposed to rat lung parenchymal strips which were then challenged with arachidonic acid. This tissue is known to contain both non-specific esterase activity as well as to convert arachidonic acid to thromboxane (via a cyclooxygenase dependent pathway) which is then ultimately responsible for the smooth muscle contraction observed in this assay.

mu-opiate receptor = mu-opiate receptor (Cavia porcellus, UniProt A0ACM8Q262); assay: electrically stimulated guinea pig ileum assay; format: cell-based; details: in vitro mu-opiate receptor agonist activity
Sequence of mu-opiate receptor (A0ACM8Q262 1-400): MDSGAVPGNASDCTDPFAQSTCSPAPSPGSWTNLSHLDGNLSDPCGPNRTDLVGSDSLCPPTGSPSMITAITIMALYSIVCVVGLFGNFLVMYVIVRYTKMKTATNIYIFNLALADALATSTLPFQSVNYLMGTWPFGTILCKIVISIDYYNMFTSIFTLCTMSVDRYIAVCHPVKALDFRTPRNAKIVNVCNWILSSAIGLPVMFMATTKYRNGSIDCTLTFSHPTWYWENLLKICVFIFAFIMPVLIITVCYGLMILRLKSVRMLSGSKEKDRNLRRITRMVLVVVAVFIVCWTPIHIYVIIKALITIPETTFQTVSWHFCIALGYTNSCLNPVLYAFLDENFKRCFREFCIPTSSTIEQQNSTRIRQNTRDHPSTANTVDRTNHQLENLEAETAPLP

[6] = freshly obtained normal human plasma; details: 37° C., up to 180 minutes
[7] = Table II, MOS-AAPV-pNA 0.5 mM, pH 7.5, 25 C

CC(C)(C)c1ccc(C(C)(C)C(=O)Oc2ccc(CCCC(=O)O)cc2)cc1 [CE-1218, 4-(3'-carboxy-propyl)phenyl 4-tert-butylphenylisobutyrate]
Ki ([1]; Table II, MOS-AAPV-pNA 0.5 mM, pH 7.5, 25 C, read-out: Ki^ss (HNE)): 10.5 nM
pA2 -Rat Uterus (BK2-receptor [2]; Table II): inactive

CC(C)C[C@H](NC(=O)[C@@H](Cc1ccccc1)NC(=O)[C@H](CS)NC(=O)[C@H](Cc1ccccc1)NC(=O)CNC(=O)[C@@H]1C[C@@H](O)CN1C(=O)[C@@H]1CCCN1C(=O)[C@H](CCCNC(=N)N)NC(=O)[C@H](N)CCCNC(=N)N)C(=O)N[C@@H](CCCNC(=N)N)C(=O)O [CP-0126, D R-R-P-J-G-F-C-D F-L-R] (HELM PEPTIDE1{[dR].R.P.[Hyp].G.F.C.[dF].L.R}$$$$V2.0)
Ki^ss (HNE) [1, 7]: inactive

N=C(N)NCCC[C@@H](N)C(=O)N[C@@H](CCCNC(=N)N)C(=O)N1CCC[C@H]1C(=O)N1C[C@H](O)C[C@H]1C(=O)NCC(=O)N[C@@H](Cc1cccs1)C(=O)N[C@@H](CS)C(=O)N1Cc2ccccc2C[C@@H]1C(=O)N1[C@H](C(=O)N[C@@H](CCCNC(=N)N)C(=O)O)C[C@@H]2CCCC[C@@H]21 [CP-0347, D R-R-P-J-G-Thi-C-D Tic-Oic-R] (H-[dR]RP[Hyp]G[2Thi]C[dTic][Oic]R-OH)
Kb (BK2-receptor [3]): 0.316 nM

COc1ccc2c(c1)c(CC(=O)OCCCCCCN1C(=O)CC(SC[C@H](NC(=O)[C@H](Cc3ccccc3)NC(=O)CNC(=O)[C@@H]3C[C@@H](O)CN3C(=O)[C@@H]3CCCN3C(=O)[C@H](CCCNC(=N)N)NC(=O)[C@H](N)CCCNC(=N)N)C(=O)N[C@H](Cc3ccccc3)C(=O)N[C@@H](CC(C)C)C(=O)N[C@@H](CCCNC(=N)N)C(=O)O)C1=O)c(C)n2C(=O)c1ccc(Cl)cc1 (stereo partly shown) [CP-0460] (H-[dR]RP[Hyp]GFC(X7)[dF]LR-OH)
Kb (BK2-receptor [3]): ~15.8 nM

COc1ccc2c3c1O[C@H]1C(NCCSC4CC(=O)N(CCCCCCN5C(=O)CC(SC[C@H](NC(=O)[C@H](Cc6ccccc6)NC(=O)CNC(=O)[C@@H]6C[C@@H](O)CN6C(=O)[C@@H]6CCCN6C(=O)[C@H](CCCNC(=N)N)NC(=O)[C@H](N)CCCNC(=N)N)C(=O)N[C@H](Cc6ccccc6)C(=O)N[C@@H](CC(C)C)C(=O)N[C@@H](CCCNC(=N)N)C(=O)O)C5=O)C4=O)CC[C@@]4(O)[C@@H](C2)N(C)CC[C@]314 (stereo partly shown) [CP-0477] (H-[dR]RP[Hyp]GFC(X9)[dF]LR-OH)
Kb (BK2-receptor [3]): 12.6 nM

CC(C)C[C@H](NC(=O)[C@@H](Cc1ccccc1)NC(=O)[C@H](CSC1CC(=O)N(CCCCCCO)C1=O)NC(=O)[C@H](Cc1ccccc1)NC(=O)CNC(=O)[C@@H]1C[C@@H](O)CN1C(=O)[C@@H]1CCCN1C(=O)[C@H](CCCNC(=N)N)NC(=O)[C@H](N)CCCNC(=N)N)C(=O)N[C@@H](CCCNC(=N)N)C(=O)O (stereo partly shown) [CP-0487] (H-[dR]RP[Hyp]GFC(X20)[dF]LR-OH)
Ki^ss (HNE) [1, 7]: inactive
Kb (BK2-receptor [3]): 3.98 nM

COc1ccc2c3c1O[C@H]1C(NC(=O)CNC(=O)CCSC4CC(=O)N(CCCCCCN5C(=O)CC(SC[C@H](NC(=O)[C@H](Cc6ccccc6)NC(=O)CNC(=O)[C@@H]6C[C@@H](O)CN6C(=O)[C@@H]6CCCN6C(=O)[C@H](CCCNC(=N)N)NC(=O)[C@H](N)CCCNC(=N)N)C(=O)N[C@H](Cc6ccccc6)C(=O)N[C@@H](CC(C)C)C(=O)N[C@@H](CCCNC(=N)N)C(=O)O)C5=O)C4=O)CC[C@@]4(O)[C@@H](C2)N(C)CC[C@]314 (stereo partly shown) [CP-0488] (H-[dR]RP[Hyp]GFC(X13)[dF]LR-OH)
Kb (BK2-receptor [3]): 6.31 nM

CC(C)C[C@H](NC(=O)[C@@H](Cc1ccccc1)NC(=O)[C@H](CSC1CC(=O)N(CCCCCCN2C(=O)CC(SCCNC3CC[C@@]4(O)[C@H]5Cc6ccc(O)c7c6[C@@]4(CCN5C)[C@H]3O7)C2=O)C1=O)NC(=O)[C@H](Cc1ccccc1)NC(=O)CNC(=O)[C@@H]1C[C@@H](O)CN1C(=O)[C@@H]1CCCN1C(=O)[C@H](CCCNC(=N)N)NC(=O)[C@H](N)CCCNC(=N)N)C(=O)N[C@@H](CCCNC(=N)N)C(=O)O (stereo partly shown) [CP-0494] (H-[dR]RP[Hyp]GFC(X1)[dF]LR-OH)
Kb (BK2-receptor [3]): 3.98 nM
narcotic / behavioral effects in the formalin test [4]: no observable narcotic effects

CC(C)C[C@H](NC(=O)[C@@H](Cc1ccccc1)NC(=O)[C@H](CSC1CC(=O)N(CCCCCCOC(=O)CCCS(=O)(=O)c2ccc(OC(=O)C(C)(C)c3ccc(C(C)(C)C)cc3)cc2)C1=O)NC(=O)[C@H](Cc1ccccc1)NC(=O)CNC(=O)[C@@H]1C[C@@H](O)CN1C(=O)[C@@H]1CCCN1C(=O)[C@H](CCCNC(=N)N)NC(=O)[C@H](N)CCCNC(=N)N)C(=O)N[C@@H](CCCNC(=N)N)C(=O)O (stereo partly shown) [CP-0502] (H-[dR]RP[Hyp]GFC(X4)[dF]LR-OH)
Ki [1]: 6.6 nM
half-life (in vitro; human, plasma (freshly obtained normal human plasma)): ~1.88 h
hydrolysis in human plasma (HPLC) (in vitro; normal human plasma, 37° C., to CP-0487 and its des-Arg9 derivative): readily hydrolyzed
Kb (BK2-receptor [3]): 31.6 nM

COc1ccc2c(c1)c(CC(=O)O)c(C)n2C(=O)c1ccc(Cl)cc1 [indomethacin]
pA2, standard rat uterus assay (BK2-receptor [2]; intact compound): no effect on this assay at any concentration
log dose ratio shift [5]: 0.998+/-0.425

COc1ccc2c3c1O[C@H]1C(=O)CC[C@@]4(O)[C@@H](C2)N(C)CC[C@]314 [oxycodone]
pA2 -Rat Uterus (BK2-receptor [2]; Table I, BK2-receptor activity): inactive
activity in guinea pig ileum assay (mu-opiate receptor): neither oxycodone nor the heterodimers derived from oxycodone (CP-0477 and CP-0488) showed any activity

CN1CC[C@]23c4c5ccc(O)c4O[C@H]2C(=O)CC[C@@]3(O)[C@H]1C5 [oxymorphone]
pA2 -Rat Uterus (BK2-receptor [2]; Table I, BK2-receptor activity): inactive
effect on licking behavior (both phases) in the formalin test ([4]; 50 ul formalin in hind limb foot pad): reduces both phases of the licking behavior
dose at which both phases of the pain response are blocked ([4]; mouse formalin test): 0.9 µmol/kg
narcotic / behavioral effects in the formalin test [4]: significant behavioral obtundation resulting in catalepsy and frank respiratory depression

D R-R-P-J-G-F-C-D F-L-R
cleaved bond [6]: Leu8-Arg9
fragment found [6]: CP-0487
